Drawing on US4073913A, “N^2 -arylsulfonyl-L-argininamides and the pharmaceutically acceptable salts thereof” (Mitsubishi Chemical Industries Limited, priority 1974, dated 1978), this text covers IC (2-fold clotting time) for 24 compounds.

SMILES strings stand for the structures.

This test deals with T1, thrombin (Bos taurus, UniProt P00735).
T1 construct: clotting of bovine fibrinogen
Put plainly: fibrinogen coagulation time (concentration required to prolong the coagulation time by a factor of two). The format is biochemical. The following applies: bovine fibrinogen, thrombin 5 units/ml, borate saline buffer pH 7.4, 25° C; control 50-55 seconds prolonged to 100-110 seconds. As for the experimental part:
The measurement of the fibrinogen coagulation time was conducted as follows:
Immediately after mixing, the reaction mixture was transferred from the ice bath to a bath maintained at 25° C. Coagulation times were taken as the period between the time of transference to the 25° C bath and the time of the first appearance of fibrin threads. […] The term "concentration required to prolong the coagulation time by a factor of two" is the concentration of an active ingredient required to prolong the normal coagulation time 50-55 seconds to 100-110 seconds.
As for `CCCN(CC(=O)O)C(=O)[C@H](CCCNC(=N)N)NS(=O)(=O)c1ccc2cc(OC)c(OC)cc2c1` [compound 1], the IC (2-fold clotting time) worked out at 8 µM.
As for `COc1cc2ccc(S(=O)(=O)N[C@@H](CCCNC(=N)N)C(=O)N(CC(=O)O)CC(C)C)cc2cc1OC` [compound 5], the figure is 2 µM; as for `CCCCCN(CC(=O)O)C(=O)[C@H](CCCNC(=N)N)NS(=O)(=O)c1ccc2cc(OC)c(OC)cc2c1` [compound 7], 5 µM; as for `CCCCCCN(CC(=O)O)C(=O)[C@H](CCCNC(=N)N)NS(=O)(=O)c1ccc2cc(OC)c(OC)cc2c1` [compound 9], 1.5 µM.
On to `COCCN(CC(=O)O)C(=O)[C@H](CCCNC(=N)N)NS(=O)(=O)c1ccc2cc(OC)c(OC)cc2c1` [compound 13], for which the IC (2-fold clotting time) is 0.5 µM.
Turning to `CCOC(=O)CN(CCOC)C(=O)[C@H](CCCNC(=N)N)NS(=O)(=O)c1ccc2cc(OC)c(OC)cc2c1` [compound 14], the IC (2-fold clotting time) came out at 1.5 µM.
As for `COCCN(CCCC(=O)O)C(=O)[C@H](CCCNC(=N)N)NS(=O)(=O)c1ccc2cc(OC)c(OC)cc2c1` [compound 17], the IC (2-fold clotting time) was determined as 2.5 µM.
For the compound `COCCCN(CC(=O)O)C(=O)[C@H](CCCNC(=N)N)NS(=O)(=O)c1ccc2cc(OC)c(OC)cc2c1` [compound 19], the IC (2-fold clotting time) was determined as 5 µM.
`CCOCCN(CCC(=O)O)C(=O)[C@H](CCCNC(=N)N)NS(=O)(=O)c1ccc2cc(OC)c(OC)cc2c1` [compound 21]: the IC (2-fold clotting time) was found to be 4 µM.
`COCCN(CC(=O)O)C(=O)[C@H](CCCNC(=N)N)NS(=O)(=O)c1cc(OC)c2cc(OC)ccc2c1` [compound 23]: the IC (2-fold clotting time) was 4 µM.
In the case of `CCCCN(CC(=O)O)C(=O)[C@H](CCCNC(=N)N)NS(=O)(=O)c1cc(OC)c2cc(OC)ccc2c1` [compound 25], the IC (2-fold clotting time) stood at 2 µM.
Consider `CCOc1cc2ccc(S(=O)(=O)N[C@@H](CCCNC(=N)N)C(=O)N(CCOC)CC(=O)O)cc2cc1OCC` [compound 27], for which the IC (2-fold clotting time) was 15 µM.
With `CCCCN(CC(=O)O)C(=O)[C@H](CCCNC(=N)N)NS(=O)(=O)c1ccc2cc(OC)ccc2c1` [compound 31], the IC (2-fold clotting time) is 0.5 µM.
In the case of `COCCN(CC(=O)O)C(=O)[C@H](CCCNC(=N)N)NS(=O)(=O)c1ccc2ccc(OC)cc2c1` [compound 35], the IC (2-fold clotting time) was 0.5 µM.
As to `CCCCN(CC(=O)O)C(=O)[C@H](CCCNC(=N)N)NS(=O)(=O)c1ccc2ccc(OC)cc2c1` [compound 39], the IC (2-fold clotting time) came to 0.5 µM.
As for `COCCN(CC(=O)O)C(=O)[C@H](CCCNC(=N)N)NS(=O)(=O)c1cccc2c(OC)cccc12` [compound 43], the figure is 2.5 µM.
With `COc1cc2ccc(S(=O)(=O)N[C@@H](CCCNC(=N)N)C(=O)N(CCC(=O)O)Cc3ccccc3)cc2cc1OC` [compound 52], the IC (2-fold clotting time) is 10 µM.
Turning to `COc1cc2ccc(S(=O)(=O)N[C@@H](CCCNC(=N)N)C(=O)N(CCc3ccccc3)CC(=O)O)cc2cc1OC` [compound 54], the IC (2-fold clotting time) was 3 µM.
In the case of `COc1cc2ccc(S(=O)(=O)N[C@@H](CCCNC(=N)N)C(=O)N(CCC(=O)O)CCc3ccccc3)cc2cc1OC` [compound 56] it was 50 µM; in that of `COc1ccc2cc(S(=O)(=O)N[C@@H](CCCNC(=N)N)C(=O)N(CC(=O)O)Cc3ccccc3)cc(OC)c2c1` [compound 58], 6.5 µM.
Regarding `COc1ccc2cc(S(=O)(=O)N[C@@H](CCCNC(=N)N)C(=O)N(CCCC(=O)O)Cc3ccccc3)ccc2c1` [compound 60], the IC (2-fold clotting time) was found to be 50 µM.
Take `COc1ccc2cc(S(=O)(=O)N[C@@H](CCCNC(=N)N)C(=O)N(CCC(=O)O)Cc3ccccc3)ccc2c1` [compound 62]: the IC (2-fold clotting time) amounted to 15 µM.
On to `COc1ccc2ccc(S(=O)(=O)N[C@@H](CCCNC(=N)N)C(=O)N(CCc3ccccc3)CC(=O)O)cc2c1` [compound 64], for which the IC (2-fold clotting time) is 20 µM.
In the case of `COc1ccc2ccc(S(=O)(=O)N[C@@H](CCCNC(=N)N)C(=O)N(CCSC)CC(=O)O)cc2c1` [compound 67], the IC (2-fold clotting time) was determined as 1 µM.
